Results reported in patent US7666635B2, “Process for the preparation of amides” (priority 1997, dated 2010).
Where two headings read alike, the source gives them in different places.

What was measured:
[1] = test system: purified nitrile hydratase from NA40; assay: Substrate specificity of the purified nitrile hydratase; assay type: biochemical, Amycolatopsis NA40
Protocol: The substrate specificity was determined analogously to Example 2 (1).
1.7 Units of enzyme were added to the reaction mixture (2.0 ml). The reaction mixture contained the respective substrate in 45 mM phosphate buffer (pH 7.0).

Rhodoccus GF270 = assay: Tolerance of 3-cyanopyridine on the activity of resting cells; assay type: cell-based, Rhodococcus GF270; settings: substrate concentration of 4% (w/v), resting cells 15 min at 20° C.
Protocol: (§1) In order to test the tolerance of 3-cyanopyridine, resting cells were incubated for 15 min at 20° C. at concentrations of 3-cyanopyridine between 1 and 10% (w/v) and the cells were then removed by centrifugation. After washing the cells with 0.85% NaCl, the remaining activity was measured.
(§2) The tolerance of 3-cyanopyridine as a substrate was tested at various substrate concentrations.

Rhodoccus GF578 = assay: as above; assay type: cell-based, Rhodococcus GF578; settings: up to a substrate concentration of 8%, resting cells 15 min at 20° C.
Protocol: as §1, §2

[2] = test system: nitrile hydratase of NA40; assay: Determination of the KM value (Lineweaver-Burk diagram); assay type: biochemical, Amycolatopsis NA40; settings: substance as substrate; 20 ° C., 45 mM phosphate buffer, pH 7.0
Protocol: The KM value was determined to be 41.7 mM for 3-cyanopyridine and to be 3.7 mM for acrylonitrile by means of the Lineweaver-Burk diagram. […] This is one of the main advantages of NA40.

Rhodoccus rhodochrous J1 = assay: Tolerance of 3-cyanopyridine on the activity of resting cells; assay type: cell-based, Rhodococcus rhodochrous J1; settings: substrate concentration of 2% (w/v), resting cells 15 min at 20° C.
Protocol: as §1, §2

[3] = test system: NA40 nitrile hydratase (resting NA40 cells); assay: Substrate specificity of resting NA40 cells; assay type: cell-based, Amycolatopsis NA40
Protocol: (3) For determination of the activity of NA40 with respect to a number of substrates, cells having a dry weight of 0.0388 mg were incubated in the buffer described above. The reaction was started by addition of the appropriate substrate and incubated at 20° C. with shaking for 10 min. The reaction was stopped by addition of 0.2 ml of 2 N HCl and the reaction mixture was briefly centrifuged. The supernatant was analysed by means of HPLC or gas chromatography.

[4] = test system: Rhodococcus rhodochrous J1; assay: Activity for 3-cyanopyridine, microorganism (comparison in basal medium); assay type: cell-based
Protocol: (§3) (1) For determination of the nitrile hydratase activity, a reaction mixture (2 ml) containing 3-cyanopyridine (1.0 M, 1.0 ml), potassium phosphate buffer (pH 7.0, 0.1 M, 0.5 ml) and 0.5 ml of cell suspension were incubated at 20° C. for 30 min with stirring. The reaction was stopped by addition of 0.2 ml of 3 N HCl. After centrifuging briefly, the nicotinamide formed was determined by means of HPLC (Shimadzu SPD 6A system using a C18 column (Develosil ODS-HG-5. […]); eluent: 10 mM KH2PO4/H3PO4 (pH 2.8)/acetonitrile 9:1 (v/v); flow rate: 1 ml/min; the absorption was measured at 230 nm). The specific activity was expressed as µmol of nicotinamide formed/ml/min/OD610 nm.
(§4) The reaction rates of aliphatic nitriles in the enrichment medium (Table 1) with isolated bacteria is summarized in Table 5, the effects of inducers and cofactors in the basal medium (Table 2) is summarized in Table 4 and the activity comparison of Amycolatopsis to Rhodoccus in the basal medium (Table 2) is summarized in Table 6.

[5] = test system: Amycolatopsis NA40 (DSMZ 11617); assay: as above; assay type: cell-based
Protocol: as §3, §4

Rhodoccus GF674 = assay: Tolerance of 3-cyanopyridine on the activity of resting cells; assay type: cell-based, Rhodococcus GF674; settings: substrate concentration of 4% (w/v), resting cells 15 min at 20° C.
Protocol: as §1, §2

[6] = test system: Rhodococcus rhodochrous J1; assay: Substrate specificity of the Rhodococcus strains; assay type: cell-based
Protocol: (§5) Rhodococcus rhodochrous J1 was cultured for 72 h in the medium described in EP-A 0 307 926. The microorganisms Rhodoccus GF674, GF578, GF270 and GF376 were cultured in the following media at pH 7.0 for up to 96 h:
(§6) The substrate specificity is summarized as relative activity in Table 15.

Rhodoccus GF376 = assay: Tolerance of 3-cyanopyridine on the activity of resting cells; assay type: cell-based, Rhodococcus GF376; settings: substrate concentration of 10% (w/v), resting cells 15 min at 20° C.
Protocol: as §1, §2

[7] = target: T1, Purified enzyme from J1 (nitrile hydratase) (Rhodococcus rhodochrous, UniProt P21219+P21220); assay: Activity for 3-cyanopyridine, purified enzyme; assay type: biochemical
T1 construct: host or cells: Rhodococcus rhodochrous J1 (native producer)

[8] = test system: Purified enzyme from NA40 (nitrile hydratase); assay: Activity for 3-cyanopyridine, purified enzyme; assay type: biochemical, Amycolatopsis NA40
Protocol: […] The reaction was stopped by addition of 0.2 ml of 3 N HCl. After centrifuging briefly, the nicotinamide formed was determined by means of HPLC (Shimadzu SPD 6A system using a C18 column (Develosil ODS-HG-5. […]); eluent: 10 mM KH2PO4/H3PO4 (pH 2.8)/acetonitrile 9:1 (v/v); flow rate: 1 ml/min; the absorption was measured at 230 nm). The specific activity was expressed as µmol of nicotinamide formed/ml/min/OD610 nm.
as §4

Rhodococcus GF674 = assay: Substrate specificity of the Rhodococcus strains; assay type: cell-based
Protocol: as §5
(§7) Rhodoccus GF674 in a medium comprising yeast extract 1.0 g/l, fructose 5.0 g/l, malt extract 10.0 g/l, acetamide 5.0 g/l, KH2PO4 2.0 g/l, MgSO47H2O 0.5 g/l and CoCl2.6H2O 10.0 mg. Rhodoccus GF578 in a medium containing yeast extract 1.0 g/l, fructose 15.0 g/l, malt extract 10.0 g/l, acetamide 25.0 g/l, KH2PO4 2.0 g/l, MgSO47H2O 0.5 g/l and CoCl2.6H2O 5.0 mg. […] Rhodoccus GF3 76 in a medium containing yeast extract 1.0 g/l, sodium citrate 10.0 g/l, malt extract 15.0 g/l, butyramide 7.5 g/l, KH2PO4 2.0 g/l, MgSO4.7H2O 0.5 g/l and CoCl2.6H2O 15.0 mg.
as §6

Rhodococcus GF270 = assay: Substrate specificity of the Rhodococcus strains; assay type: cell-based
Protocol: as §5, §7, §6

Rhodococcus GF578 = assay: Substrate specificity of the Rhodococcus strains; assay type: cell-based
Protocol: as §5, §7, §6

Rhodococcus GF376 = assay: Substrate specificity of the Rhodococcus strains; assay type: cell-based
Protocol: as §5, §7, §6

[9] = test system: Actinomadura spadix E3733; assay: Conversion rates of aliphatic nitriles using the isolated bacteria (enrichment medium); assay type: cell-based
Protocol: (§8) a) Various soil samples were inoculated with various nitriles or amides as a C and N source in the enrichment medium according to Table 1 and incubated at 37° C. or 45° C. for 7 10 days. The cultures were then transferred to the same medium and again cultured at 37° C. for 7 10 days. The whole process was repeated 3 times. The cultures were then diluted and plated out in order to obtain individual colonies. The plates were incubated at 37° C. for 5 days. The different colonies were then tested for the desired activity.
(§9) […] as a C and N source for Amycolatopsis NE31 (DSMZ 11616) Actinomadura spadix E3733 and Actinomadura spadix E3736, azelanitrile served as a C and N source for Amycolatopsis NA40 (DSMZ 11617) and Actinomadura spadix 45A32, n-octanenitrile served as a C and N source for Actinomadura spadix 4501 and cyanoacetic acid served as a C and N source for Actinomadura spadix C15.
as §3, §4

[10] = test system: Actinomadura spadix E3736; assay: as above; assay type: cell-based
Protocol: as §8, §9, §3, §4

[11] = test system: Amycolatopsis NE31 (DSMZ 11616); assay: as above; assay type: cell-based
Protocol: as §8, §9, §3, §4

[12] = test system: Amycolatopsis NA40 (DSMZ 11617); assay: as above; assay type: cell-based
Protocol: as §8, §9, §3, §4

[13] = test system: Actinomadura spadix 45A32; assay: as above; assay type: cell-based
Protocol: as §8, §9, §3, §4

Actinomadura spadix C15 = assay: as above; assay type: cell-based
Protocol: as §8, §9, §3, §4

[14] = test system: purified nitrile hydratase from NA40; assay: Substrate specificity of the purified nitrile hydratase; assay type: biochemical, Amycolatopsis NA40; settings: pH 7
[15] = purified enzyme, 3-cyanopyridine = 100
[16] = resting NA40 cells, 20° C., 10 min, 3-cyanopyridine = 100, substrate concentration per Table 8
[17] = Rhodococcus rhodochrous J1, 3-cyanopyridine = 100
[18] = Rhodococcus GF674, 3-cyanopyridine = 100
[19] = Rhodococcus GF270, 3-cyanopyridine = 100
[20] = Rhodococcus GF578, 3-cyanopyridine = 100
[21] = Rhodococcus GF376, 3-cyanopyridine = 100

T1 sequence (P21219 2-203 limits assumed): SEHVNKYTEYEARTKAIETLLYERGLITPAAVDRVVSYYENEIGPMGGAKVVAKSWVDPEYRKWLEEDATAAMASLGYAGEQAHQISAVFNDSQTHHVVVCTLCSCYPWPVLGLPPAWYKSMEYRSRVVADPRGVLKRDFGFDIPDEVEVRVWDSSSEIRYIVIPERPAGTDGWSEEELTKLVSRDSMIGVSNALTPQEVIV
T1 sequence (P21220 whole entry): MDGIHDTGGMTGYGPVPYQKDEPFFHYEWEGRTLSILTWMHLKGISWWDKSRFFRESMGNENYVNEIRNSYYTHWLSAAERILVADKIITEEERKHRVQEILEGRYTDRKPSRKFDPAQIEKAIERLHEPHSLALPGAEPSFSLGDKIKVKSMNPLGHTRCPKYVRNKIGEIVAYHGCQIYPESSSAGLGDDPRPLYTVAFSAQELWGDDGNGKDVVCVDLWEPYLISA

SMILES: N#Cc1cccnc1 [3-Cyanopyridine]
- Relative activity, Enzyme reaction [1, 15]: 100%
- nitrile hydratase activity decreased by the factor (Rhodoccus GF270): 1.17
- nitrile hydratase activity (Rhodoccus GF578): remained nearly constant
- Km [2]: 41.7 mM
- nitrile hydratase activity decreased by the factor (Rhodoccus rhodochrous J1): 1.4
- Relative activity [3, 16]: 100%
- Activity for 3-cyanopyridine [4]: 314
- Activity for 3-cyanopyridine [5]: 303 µmol/mL/min
- nitrile hydratase activity decreased by the factor (Rhodoccus GF674): 1.4
- relative activity (substrate specificity) [6, 17]: 100%
- nitrile hydratase activity decreased by the factor (Rhodoccus GF376): 1.25
- Activity for 3-cyanopyridine [7]: 371 μmol/min/mg protein
- Activity for 3-cyanopyridine [8]: 1110 μmol/min/mg protein
- relative activity (substrate specificity) (Rhodococcus GF674; [18]): 100%
- relative activity (substrate specificity) (Rhodococcus GF270; [19]): 100%
- relative activity (substrate specificity) (Rhodococcus GF578; [20]): 100%
- relative activity (substrate specificity) (Rhodococcus GF376; [21]): 100%

SMILES: C=CC#N [Acrylonitrile]
- Relative activity, Enzyme reaction [1, 15]: 94%
- Km [2]: 3.7 mM
- Relative activity [3, 16]: 115%
- relative activity (substrate specificity) [6, 17]: 478%
- relative activity (substrate specificity) (Rhodococcus GF674; [18]): 147%
- relative activity (substrate specificity) (Rhodococcus GF270; [19]): 192%
- relative activity (substrate specificity) (Rhodococcus GF578; [20]): 101%
- relative activity (substrate specificity) (Rhodococcus GF376; [21]): 257%

SMILES: N#CCCCCC#N [Adiponitrile]
- Specific activity ([9]; strain E3733): 0.214 μmol/ml/min/OD
- Total activity ([9]; strain E3733): 0.347 µmol/mL/min
- Growth (OD610 nm) ([9]; strain E3733, nitrile as substrate in enrichment medium): 1.62 OD610 nm
- Specific activity ([10]; strain E3736): 2.21 μmol/ml/min/OD
- Total activity ([10]; strain E3736): 3.00 µmol/mL/min
- Growth (OD610 nm) ([10]; strain E3736, nitrile as substrate in enrichment medium): 1.36 OD610 nm
- Specific activity ([11]; strain NE31): 0.141 μmol/ml/min/OD
- Total activity ([11]; strain NE31): 0.377 µmol/mL/min
- Growth (OD610 nm) ([11]; strain NE31, nitrile as substrate in enrichment medium): 2.68 OD610 nm

SMILES: N#CCCCCCCCC#N [Azelanitrile]
- Specific activity ([12]; strain NA40): 5.57 μmol/ml/min/OD
- Total activity ([12]; strain NA40): 33.0 µmol/mL/min
- Growth (OD610 nm) ([12]; strain NA40, nitrile as substrate in enrichment medium): 5.92 OD610 nm
- Specific activity ([13]; strain 45A32): 3.23 μmol/ml/min/OD
- Total activity ([13]; strain 45A32): 18.8 µmol/mL/min
- Growth (OD610 nm) ([13]; strain 45A32, nitrile as substrate in enrichment medium): 5.81 OD610 nm

SMILES: N#CCC(=O)O [Cyanoacetic acid]
- Specific activity (Actinomadura spadix C15; strain C15): 3.43 μmol/ml/min/OD
- Total activity (Actinomadura spadix C15; strain C15): 7.01 µmol/mL/min
- Growth (OD610 nm) (Actinomadura spadix C15; strain C15, substrate in enrichment medium): 2.04 OD610 nm

SMILES: N#Cc1ccc(Cl)cc1 [p-Chlorobenzonitrile]
- Relative activity, Enzyme reaction [1]: 13%
- Relative activity [3]: 16%
- relative activity (substrate specificity) [6]: 13%
- Total activity [14]: 2.30 µmol/mL/min
- relative activity (substrate specificity) (Rhodococcus GF674): 0%
- relative activity (substrate specificity) (Rhodococcus GF270): 0%
- relative activity (substrate specificity) (Rhodococcus GF578): 0%
- relative activity (substrate specificity) (Rhodococcus GF376): 0%
